Measured values published in PMC5018213 (Journal of medicinal chemistry, 2016).
Read-outs that look alike come from different tables or passages of the source. Blank lines part the entries; values can stand above or below the molecule they belong to.

What was measured:
human PCFT = biological target: T1, human PCFT (Homo sapiens, UniProt Q96NT5); assay: PCFT transport competition, [3H]MTX uptake in R2/PCFT4 CHO cells; type: cell-based; conditions: for inhibition at 1 µM / inhibition at 10 µM: pH 5.5, read-out: Inhibition of [3H]MTX uptake; for Ki for PCFT [3H]MTX transport inhibition, fold higher than for PMX: pH 5.5, Dixon analysis
T1 sequence (Q96NT5 1-459): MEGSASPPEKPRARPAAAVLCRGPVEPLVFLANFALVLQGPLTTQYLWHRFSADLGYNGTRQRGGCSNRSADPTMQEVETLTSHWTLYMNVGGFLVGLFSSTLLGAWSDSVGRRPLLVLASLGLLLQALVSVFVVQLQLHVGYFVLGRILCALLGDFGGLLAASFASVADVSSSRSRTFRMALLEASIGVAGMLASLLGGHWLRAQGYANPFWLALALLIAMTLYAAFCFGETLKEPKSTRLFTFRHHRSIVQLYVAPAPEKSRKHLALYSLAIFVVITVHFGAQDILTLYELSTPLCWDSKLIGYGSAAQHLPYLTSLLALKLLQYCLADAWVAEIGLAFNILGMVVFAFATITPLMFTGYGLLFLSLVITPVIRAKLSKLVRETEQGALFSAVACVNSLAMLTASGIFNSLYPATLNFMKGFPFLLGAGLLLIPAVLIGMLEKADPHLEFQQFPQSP

[1] = test system: CHO subline engineered to express human RFC (PC43-10); assay: Proliferation assay, RFC-expressing PC43-10 CHO cells; conditions: PC43-10, 96 h, read-out: IC50 PC43-10 (RFC)
[2] = test system: KB human tumor cells (express RFC, FRα, and PCFT); type: cell-based
[3] = test system: IGROV1 ovarian tumor xenografts; assay: In vivo efficacy trial with IGROV1 xenografts in SCID mice; conditions: folate-deficient diet
FRα (RT16 CHO cells) = FRα (RT16 CHO cells) (Homo sapiens, UniProt P15328); assay: FR binding assay, [3H]folic acid competition in RT16 cells; conditions: folic acid = 1
FRα (RT16 CHO cells), sequence (P15328 25-257): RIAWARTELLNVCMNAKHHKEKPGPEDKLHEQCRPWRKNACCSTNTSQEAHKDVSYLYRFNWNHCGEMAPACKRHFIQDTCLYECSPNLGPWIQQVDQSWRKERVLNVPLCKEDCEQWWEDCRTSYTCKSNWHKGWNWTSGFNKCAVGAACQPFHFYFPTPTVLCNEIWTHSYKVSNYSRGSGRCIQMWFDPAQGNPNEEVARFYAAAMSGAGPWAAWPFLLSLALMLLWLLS

FRβ (D4 CHO cells) = FRβ (D4 CHO cells) (Homo sapiens, UniProt P14207); assay: FR binding assay, [3H]folic acid competition in D4 cells; conditions: folic acid = 1
FRβ (D4 CHO cells), sequence (P14207 17-255): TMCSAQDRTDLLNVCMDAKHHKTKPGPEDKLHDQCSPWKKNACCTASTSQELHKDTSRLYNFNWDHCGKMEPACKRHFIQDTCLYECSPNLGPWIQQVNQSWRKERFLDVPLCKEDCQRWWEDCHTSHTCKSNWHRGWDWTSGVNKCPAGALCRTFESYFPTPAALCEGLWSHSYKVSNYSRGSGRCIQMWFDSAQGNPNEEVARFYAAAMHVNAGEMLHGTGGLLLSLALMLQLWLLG

human GARFTase = biological target: T2, human GARFTase (Homo sapiens, UniProt P22102); type: biochemical; conditions: from Ki values, Table 2
T2 sequence (P22102 810-1010 limits assumed): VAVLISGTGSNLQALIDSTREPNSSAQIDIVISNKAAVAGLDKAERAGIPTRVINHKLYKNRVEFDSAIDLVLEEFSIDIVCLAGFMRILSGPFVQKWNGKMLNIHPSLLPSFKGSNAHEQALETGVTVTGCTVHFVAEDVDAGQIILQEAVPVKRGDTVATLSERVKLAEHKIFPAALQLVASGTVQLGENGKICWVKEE

inhibition at 1 µM (human PCFT): 30 to 60% | inhibition at 10 µM (human PCFT): 80 to 90%
SMILES: Nc1nc2[nH]c(CCCc3ccc(C(=O)N[C@@H](CCC(=O)O)C(=O)O)cc3)cc2c(=O)[nH]1 [Compound 1]
IC50 [1]: 649 nM

Relative binding affinity, % of the affinity for folic acid, FRα (FRα (RT16 CHO cells)): 60–110% | Ki for PCFT [3H]MTX transport inhibition, fold higher than for PMX (human PCFT): ~ 7 fold | Relative binding affinity, % of the affinity for folic acid, FRβ (FRβ (D4 CHO cells)): 60–110% | Improvement in GARFTase inhibitory potency over C (1) (human GARFTase): approximately 3 fold
SMILES: Nc1nc2[nH]c(CCOc3ccc(C(=O)N[C@@H](CCC(=O)O)C(=O)O)cc3)cc2c(=O)[nH]1 [Compound 8, {4-[2-(2-amino-4-oxo-4,7-dihydro-3H-pyrrolo[2,3-d]pyrimidin-6-yl)ethoxy]benzoyl}-L-glutamic acid]

Relative binding affinity, % of the affinity for folic acid, FRα (FRα (RT16 CHO cells)): 60–110% | Relative binding affinity, % of the affinity for folic acid, FRβ (FRβ (D4 CHO cells)): 60–110%
SMILES: Nc1nc2[nH]c(CCSc3ccc(C(=O)N[C@@H](CCC(=O)O)C(=O)O)cc3)cc2c(=O)[nH]1 [Compound 9, (4-{[2-(2-amino-4-oxo-4,7-dihydro-3H-pyrrolo[2,3-d]pyrimidin-6-yl)ethyl]thio}benzoyl)-L-glutamic acid]

inhibition at 1 µM (human PCFT): ≥ 90% | inhibition at 10 µM (human PCFT): ≥ 90%
SMILES: Nc1nc2[nH]cc(CCc3ccc(C(=O)N[C@@H](CCC(=O)O)C(=O)O)cc3)c2c(=O)[nH]1 [PMX, pemetrexed]

Continued, molecule first:

SMILES: Nc1nc2[nH]c(CCCc3ccc(C(=O)N[C@@H](CCC(=O)O)C(=O)O)s3)cc2c(=O)[nH]1 [Compound 3]
IC50 ([2]; read-out: IC50 KB): 0.26 nM | IC50 ([2]; read-out: IC50 KB (+FA)): 101 nM | IC50 [1]: 101 nM

SMILES: Nc1nc2[nH]c(CCNc3ccc(C(=O)N[C@@H](CCC(=O)O)C(=O)O)cc3)cc2c(=O)[nH]1 [Compound 4, (4-{[2-(2-Amino-4-oxo-4,7-dihydro-3H-pyrrolo[2,3-d]pyrimidin-6-yl)ethyl]amino}benzoyl)-L-glutamic acid]
T-C (tumor growth delay) ([3]; 384 mg/kg total dose): 9 days | log10 kill ([3]; 384 mg/kg total dose): 1.4 | Highest non-toxic total dose ([3]; Q3dx4 iv): 600 mg/kg | Body weight loss (nadir) ([3]; during treatment, reversible): 17.0–17.3% | Relative binding affinity, % of the affinity for folic acid, FRα (FRα (RT16 CHO cells)): 60–110% | Relative binding affinity, % of the affinity for folic acid, FRβ (FRβ (D4 CHO cells)): 60–110% | Improvement in GARFTase inhibitory potency over C (1) (human GARFTase): approximately 3 fold

SMILES: CC(=O)N(CCc1cc2c(=O)[nH]c(N)nc2[nH]1)c1ccc(C(=O)N[C@@H](CCC(=O)O)C(=O)O)cc1 [Compound 6, (4-{N-[2-(2-amino-4-oxo-4,7-dihydro-3H-pyrrolo[2,3-d]pyrimidin-6-yl)ethyl]acetamido}benzoyl)-L-glutamic acid]
Ki for PCFT [3H]MTX transport inhibition, fold higher than for PMX (human PCFT): ~ 18 fold
